Measurements reported in PubChem BioAssay AID2060362 (Molecular Pharmacology Branch, DTP, NCI, 2025).

Tested on: 128128-338-R-J1-PDC spheroids, viability % test/control
Test: Anticancer human tumor 128128-338-R-J1-PDC patient-derived melanoma cell line growth inhibition [TAK]
Conditions: spheroids with HUVEC and MSC; for IC50: curve of first compound; for viability, T/C: stronger effect = lower value
Description: Combinatorial screen of targeted agents with TAK-243 and ipatasertib in multi-cell type tumor spheroids
A high-throughput screen of multi-cell type tumor spheroids was designed to identify active combinations of targeted small molecules and TAK-243 or ipatasertib. Complex spheroids include a stromal component modeled by human endothelial cells (HUVEC) and fibroblasts modeled by human mesenchymal stem cells (MSCs). The concentration ranges selected for each drug and investigational agent were based upon clinically achievable concentrations if the clinical Cmax of the agent was known.
Compounds. The drugs and investigational agents: TAK-243 (785004), ipatasertib (767898), everolimus (733504), selumetinib (741078), bortezomib (756655), trametinib (758246), ixazomib (758254), vemurafenib (761431), dabrafenib (764134), sapanisertib (764658), alpelisib (765974), and copanlisib (816437), were obtained from the National Cancer Institute (NCI) Developmental Therapeutics Program Chemical Repository. The FDA-approved anticancer drug set is available from the NCI Developmental Therapeutics Program. […] The stock solutions were prepared in dimethyl sulfoxide (DMSO, Sigma-Aldrich, St. Louis, MO, cat. D2650) at 800-fold the tested concentration and stored at -70 degrees C prior to their use. All drugs and investigational agents were tested over a range starting from a high concentration at or near the clinical Cmax and decreasing in half-log increments. If the clinical Cmax for an agent had not been determined, the highest concentration tested was 10 microM.
NCI60 Cell Culture. NCI60 cell lines were obtained from the NCI Developmental Therapeutics Program Tumor Repository. For each lot of cells, the Repository performed Applied Biosystems AmpFLSTR Identifiler testing with PCR amplification to confirm consistency with the published Identifier STR profile for each cell line. Cells were kept in continuous culture for no more than 20 passages. The optimal seeding densities for each of the cell lines at each time point assessed were determined prior to performing the concentration response studies. Briefly, the NCI60 human tumor lines were grown as monolayers in RPMI 1640 medium supplemented with 10% FBS and 2 mmol/L L-glutamine.
An additional 2 lines were from the NCI60 cell line panel including melanomas, MALME-3M and SK-MEL-2. Pooled donor human umbilical vein endothelial cells (HUVEC, Lonza, cat. CC-2519) and human mesenchymal stem cells (hMSC, Lonza, cat. PT-2501) were purchased from Lonza (Walkersville, MD).
PDMR cell lines were grown in complete medium (DC medium): Dulbecco's modified Eagle's medium (DMEM)/F12 supplemented with 5% fetal bovine serum (FBS), 2 mM L-glutamine, 100 U/mL penicillin and 100 µg/ml streptomycin, 0.4 µg/ml hydrocortisone, 10 ng/ml epidermal growth factor (EGF) recombinant human protein, 24 µg/mL adenine, and 0.1 mg/mL primocin. During culture from frozen stock vials, PDMR cells were cultured in the same medium containing 10 µM Y-27632 (see Table 3). The PDCs were cultured in complete DMEM/F12 media without 10 microM Y-27632 dihydrochloride for at least two passages prior to the screen. The pooled donor HUVEC and hMSC were cultured in endothelial cell growth medium 2 (PromoCell, Heidelberg, Germany, cat. C-22011) and mesenchymal stem cell growth medium 2 (PromoCell, cat. C-28009), respectively. For all experiments, HUVEC and hMSC were used at passages </=5.
For the pre-screen, cell seeding densities were determined from a titration spanning the range from 5,000 to 313 cells per well. The mct-spheroids including 60% malignant cells, 25% HUVEC and 15% MSC dispensed as a mixture into U-bottom Ultra-Low Attachment 384-well plates (Corning, NY)
High-throughput Drug Combination Screening.
Prior to their inoculation into 384-well plates, malignant cells, HUVEC, and hMSC were removed from T flasks using TrypLE express (Thermo Fisher Scientific, cat. 12605036) and harvested by centrifugation for 5 min at 233 x g. […]
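Further: spheroids exposed to compounds for 7 days.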
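Wherever viability, T/C is given: 100% = DMSO vehicle wells.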

In the case of `CC(C)CC(NC(=O)C(Cc1ccccc1)NC(=O)c1cnccn1)B(O)O` (stereo not given) + CC(C)NCC(C(=O)N1CCN(c2ncnc3c2C(C)CC3O)CC1)c1ccc(Cl)cc1, the IC50 (second compound 0.3 µM) is reported as 1.8 nM, the IC50 (second compound 0.949 µM) is reported as 1.82 nM and the IC50 (second compound 3 µM) is reported as 1.64 nM. The IC50 (second compound 9.49 µM) was 1.22 nM, the IC50 (second compound 30 µM) was < 0.0316 nM and the viability, T/C (second compound 0.3 µM, first compound 31.6 pM) was 102%. For the same compound, the viability, T/C (second compound 0.3 µM, first compound 0.0001 µM) was 102%, the viability, T/C (second compound 0.3 µM, first compound 0.000316 µM) was 96.1% and the viability, T/C (second compound 0.3 µM, first compound 0.001 µM) was 97.3%. It also gave a viability, T/C (second compound 0.3 µM, first compound 0.00316 µM) of 4.43%, a viability, T/C (second compound 0.3 µM, first compound 0.01 µM) of 0.08% and a viability, T/C (second compound 0.949 µM, first compound 31.6 pM) of 102%. The viability, T/C (second compound 0.949 µM, first compound 0.0001 µM) was 108%, the viability, T/C (second compound 0.949 µM, first compound 0.000316 µM) was 109% and the viability, T/C (second compound 0.949 µM, first compound 0.001 µM) was 101%. The viability, T/C (second compound 0.949 µM, first compound 0.00316 µM) was 2.86%, the viability, T/C (second compound 0.949 µM, first compound 0.01 µM) was 0.1% and the viability, T/C (second compound 3 µM, first compound 31.6 pM) was 84%. For the same compound, the viability, T/C (second compound 3 µM, first compound 0.0001 µM) was 87.6%, the viability, T/C (second compound 3 µM, first compound 0.000316 µM) was 90.9% and the viability, T/C (second compound 3 µM, first compound 0.001 µM) was 83.1%. For the same compound, the viability, T/C (second compound 3 µM, first compound 0.00316 µM) was 6.23%, the viability, T/C (second compound 3 µM, first compound 0.01 µM) was 0.05% and the viability, T/C (second compound 9.49 µM, first compound 31.6 pM) was 66.8%. For the same compound, the viability, T/C (second compound 9.49 µM, first compound 0.0001 µM) was 71%, the viability, T/C (second compound 9.49 µM, first compound 0.000316 µM) was 72.5% and the viability, T/C (second compound 9.49 µM, first compound 0.001 µM) was 60%. It also gave a viability, T/C (second compound 9.49 µM, first compound 0.00316 µM) of 1.26%, a viability, T/C (second compound 9.49 µM, first compound 0.01 µM) of 0.08% and a viability, T/C (second compound 30 µM, first compound 31.6 pM) of 21.8%. For the same compound, the viability, T/C (second compound 30 µM, first compound 0.0001 µM) was 21.8%, the viability, T/C (second compound 30 µM, first compound 0.000316 µM) was 23.7% and the viability, T/C (second compound 30 µM, first compound 0.001 µM) was 22%. It also gave a viability, T/C (second compound 30 µM, first compound 0.00316 µM) of 0.38% and a viability, T/C (second compound 30 µM, first compound 0.01 µM) of 0.13%.
